Measured values reported in patent US12128024B2 (GEORGETOWN UNIVERSITY, priority 2004, dated 2024).

Experiments:
[1] = cited from earlier work
[2] = test system: cervical cancer cell lines; experiment: Morphology of cervical cancer cell lines after artemisinin treatment (phase contrast microscopy, FIG. 2); type: cell-based; conditions: 25 μM artemisinin, 3 days, vs control solvent
[3] = test system: normal cervical cells (HCX); experiment: Morphology of normal cervical cells after artemisinin treatment (phase contrast microscopy, FIG. 2); type: cell-based; conditions: 25 μM artemisinin, 3 days, vs control solvent
[4] = test system: cervical cancer cell lines (HeLa, SiHa, Caski); experiment: Viability dose-response of cervical cancer cell lines (FIG. 3); type: cell-based; conditions: 72 h, 25 μM DHA, within 3 days of treatment, read-out: loss of viability
[5] = test system: HeLa cells; experiment: Viability dose-response of HeLa cells (FIG. 3); type: cell-based; conditions: 25 μM DHA
[6] = test system: MJ, HTLV-I positive cutneous T cell leukemia line; experiment: Trypan blue viability of HTLV-I positive lymphoid cell line (FIG. 5); type: cell-based; conditions: Primate T-lymphotropic virus 1, T-cell; 6.25 μM DHA; MJ cells; read-out: cells killed (viability as % of controls, trypan blue)
Protocol: (§1) One cell line, referred to as MJ, is an HTLV-I positive cutneous T cell leukemia line and the other cell line, referred to Namalwa, is an EBV positive Burkitt's lymphoma B cell line.
(§2) The cell lines were maintained in culture, using RPMI 1640 medium, supplemented with 10% fetal bovine serum and antibiotics. For the assay, 100,000 cells, in volumes of 100 μl medium, were placed in micro-titer wells; an additional 100 μl medium, containing 0 μM, 6.25 μM, 12.5 μM, 25 μM, 50 μM, 100 μM and 200 μM concentrations of DHA, were added. The negative controls contained medium only. The DHA stock (20 mM) was used to dilute the drug in concentrations ranging from 0 to 200 μM. All experiments were performed in triplicate. After incubation at 37° C. and 5% CO2, for various time periods, the cells were counted in a hemocytometer in the presence of trypan blue. Viability was expressed, as % of controls (no drug).

[7] = test system: Namalwa, EBV positive Burkitt's lymphoma B cell line; experiment: Trypan blue viability of EBV positive lymphoid cell line (FIG. 4); type: cell-based; conditions: human gammaherpesvirus 4, B-cell; 6.25 μM DHA; Namalwa cells; read-out: cells killed (viability as % of controls, trypan blue)
Protocol: as §1, §2

For `C[C@H]1[C@@H](OCc2ccc(C(=O)O)cc2)O[C@@H]2O[C@@]3(C)CC[C@H]4[C@H](C)CC[C@@H]1[C@@]24OO3` [artelinic acid], the “solubility in water compared with artemisinin” value [1] is listed as “higher solubility in water”.

For `C[C@@H]1CC[C@H]2[C@@H](C)C(=O)O[C@@H]3O[C@@]4(C)CC[C@@H]1[C@]32OO4` [artemisinin], the “change in morphology of cervical cancer cells” value [2] was “rounded up and detached from the tissue culture plate” and the “change in morphology of normal cervical cells (HCX)” value [3] was “little change in morphology”.

In the case of `CCO[C@H]1O[C@@H]2O[C@@]3(C)CC[C@H]4[C@H](C)CC[C@@H]([C@H]1C)[C@@]24OO3` [arteether], the “solubility in water compared with artemisinin” value [1] is given as “higher solubility in water”.

For `CCCOC(=O)OC1O[C@@H]2O[C@@]3(C)CC[C@H]4[C@H](C)CC[C@@H]([C@H]1C)[C@@]24OO3` (some centres unmarked) [propylcarbonate dihydroartemisinin], the “solubility in water compared with artemisinin” value [1] is given as “higher solubility in water”.

In the case of `CO[C@H]1O[C@@H]2O[C@@]3(C)CC[C@H]4[C@H](C)CC[C@@H]([C@H]1C)[C@@]24OO3` [artemether], the “solubility in water compared with artemisinin” value [1] is listed as “higher solubility in water”.

`C[C@H]1[C@@H](O)O[C@@H]2O[C@@]3(C)CC[C@H]4[C@H](C)CC[C@@H]1[C@@]24OO3` [DHA, dihydroartemisinin] gave a cytotoxicity at 25 µM [4] of 80%, a cell death [5] of 95% and a cytotoxicity at 6.25 µM [6] of ~60%. For the same compound, the cytotoxicity at 6.25 µM [7] was ~60% and the “solubility in water compared with artemisinin” value [1] was “higher solubility in water”.
